Test results reported in paper PMC11879280, “Antimicrobial activity of peptoids against Metallo-β-lactamase-producing Klebsiella pneumoniae, Acinetobacter baumannii, Pseudomonas aeruginosa, and other WHO priority pathogens, including Candida auris” (Journal of Applied Microbiology, 2025).
≈ marks a conversion by molar mass, not a printed value. Where two headings read alike, the source gives them in different places. Square brackets hold non-standard residues; d marks the D form. Peptide text beside a SMILES is read from it. Nspe = C[C@H](NCC(=O)O)c1ccccc1; NDecylGly = CCCCCCCCCCNCC(=O)O; Nlys = NCCCCNCC(=O)O

How the values were obtained:
K. pneumoniae JIE2709 = test: Checkerboard microdilution synergy test; assay type: cell-based, Klebsiella pneumoniae
Description: (§1) Then, 10 µl of bacteria (5 × 10^6 CFU ml^−1) or C. auris (2.5 × 10^4 CFU ml^−1) were added to each well, except for the sterility control well. […] The sterility control wells contained only MHB (or RPMI in case of C. auris), and the growth control contained 110 µl of microbial inoculum with no antimicrobials. Subsequently, the plates were incubated for 18- 24 hours at 36 ± 1 °C.
(§2) The FIC for each combination interaction was calculated as follows:
(§3) Then, the summation of FIC (ƩFIC) was calculated for each antimicrobial combination as follows: ƩFIC = FICA + FICB. […] All antimicrobial synergy experiments were repeated in at least two independent runs.

K. pneumoniae JIE2713 = test: Checkerboard microdilution synergy test; assay type: cell-based, Klebsiella pneumoniae
Description: as §1, §2, §3

C. auris CBS10913 = test: Membrane integrity by flow cytometry (SYTO 9 / PI); assay type: cell-based, Candida auris
Description: Afterwards, the cells were stained with SYTO 9 (7.5 µmol l^−1) and PI (30 µmol l^−1) for an additional 15 min in the dark at room temperature. Following washing, samples were then analysed for membrane integrity on a BD FACSymphony^TM A3, with a minimum of 10 000 events recorded per sample.

C. auris CBS 10913 [1] = test: Time-kill kinetics; assay type: cell-based, Candida auris; settings: RPMI, 35°C, three independent runs
Description: Killing kinetics (time-kill) were evaluated as described previously (Lum et al. [2015]). […] At set intervals (0, 0.5, 1, 1.5, 2, 2.5, 3, 4, 5, 6, 12, and 24 h), 100 µl samples were serially diluted in PBS and plated on Sabouraud dextrose agar (SDA; Oxoid, UK) with 0.5% polysorbate 80 (Chem-supply, SA, Australia). CFUs were enumerated, with a yeast growth control processed similarly. Results were presented from three independent runs.

[2] = system: C. auris CBS12373 biofilm; test: Initial biofilm inhibition, MTT reduction assay; assay type: cell-based, Candida auris
[3] = system: C. auris CBS12373 biofilm; assay type: cell-based, Candida auris; settings: for Mature biofilm inhibition, blank corrected 570 nm, av. of readings: MTT absorbance
Description: To assess disruption of mature biofilms, 2 × 10^5 cells were cultured for 2 h in 96-well flat bottom microtiter plates at 37°C, washed, then incubated for 48 h in fresh media to form mature biofilm. […] For each activity test, the metabolic activities of the yeast cells in biofilms were measured by MTT reduction assay after washing the disrupted biofilm with PBS (Srivastava and Ahmad [2020]).

[4] = system: C. auris CBS12373 biofilm; test: Initial biofilm inhibition, crystal violet assay; assay type: cell-based, Candida auris; settings: crystal violet staining
Description: Another set of experiments was conducted under similar conditions similar to those used for MTT assay.

C. auris CBS 10913 [5] = test: Sorbitol protection assay; assay type: cell-based, Candida auris; settings: CBS10913
Text: Caspofungin served as a positive control for the assay (Leite et al. [2014]).

MDR ESKAPE pathogens = settings: ref Nielsen et al. [2022]; cited from earlier work
Text: TM8, TM15, and TM19 featured terminal alkyl tails of either N-decyl or N-tridecyl, while all of them contained chiral aromatic Nspe along with NLys residues. Similarly, TM2, TM4, TM12, TM14, and TM19 w ... || Lipopeptoids can self-assemble into micellar macromolecules due to the hydrophobic tail domains driven by the intermolecular hydrophobic interactions. […] In a ...

[6] = as low as; ref Nielsen et al. [2022]; cited from earlier work
Text: Lipopeptoids can self-assemble into micellar macromolecules due to the hydrophobic tail domains driven by the intermolecular hydrophobic interactions. […] In a ...

[7] = system: S. aureus, K. pneumoniae, P. aeruginosa, and En. cloacae biofilm; settings: ref Nielsen et al. [2022]; cited from earlier work
Text: Another way microbes can acquire tolerance and become resistant to antimicrobials is by the production of biofilms. In biofilms, microbes switch from planktonic state to sessile form, where they are encased in an extracellular polymeric substance matrix, thereby being protected from stressful environmental conditions (Di Fermo et al. [2024]). Most ESKAPEE pathogens and C. auris form antimicrobial tolerant biofilms associated with device-associated infections (Kean and Ramage [2019], Sarkar et al. [2024]). The antibiofilm activity of some of these peptoids has already been studied against ESKAP ...

In the case of `CCCCCCCCCCNCC(=O)N(CCCCN)CC(=O)N(CC(=O)N(CC(=O)N(CCCCN)CC(=O)N(CC(=O)N(CC(N)=O)[C@@H](C)c1ccccc1)[C@@H](C)c1ccccc1)[C@@H](C)c1ccccc1)[C@@H](C)c1ccccc1` [TM8] (H-[NDecylGly][Nlys][Nspe][Nspe][Nlys][Nspe][Nspe]-NH2), the “MIC of TM8 (alone, checkerboard)” value (K. pneumoniae JIE2709) is reported as 15.625 µg/mL, the FICTM8 (K. pneumoniae JIE2709; TM8 with Cefotaxime) is reported as 0.5 and the “MF of TM8 (modulation factor)” value (K. pneumoniae JIE2709; TM8 with Cefotaxime) is reported as 2. The Outcome (K. pneumoniae JIE2709; TM8 with Cefotaxime) was “Additive (Additive if 0.5<ƩFIC ≤ 1)”, the ƩFIC (K. pneumoniae JIE2709; TM8 with Cefotaxime) was 1 and the FICTM8 (K. pneumoniae JIE2709; TM8 with Ciprofloxacin) was 0.5. For the same compound, the “MF of TM8 (modulation factor)” value (K. pneumoniae JIE2709; TM8 with Ciprofloxacin) was 2, the Outcome (K. pneumoniae JIE2709; TM8 with Ciprofloxacin) was “Additive (Additive if 0.5<ƩFIC ≤ 1)” and the ƩFIC (K. pneumoniae JIE2709; TM8 with Ciprofloxacin) was 1. For the same compound, the FICTM8 (K. pneumoniae JIE2709; TM8 with Meropenem) was 0.5, the “MF of TM8 (modulation factor)” value (K. pneumoniae JIE2709; TM8 with Meropenem) was 2 and the ƩFIC (K. pneumoniae JIE2709; TM8 with Meropenem) was 0.625. The “MIC of TM8 (alone, checkerboard)” value (K. pneumoniae JIE2713) was 15.625 µg/mL, the FICTM8 (K. pneumoniae JIE2713; TM8 with Aztreonam) was 0.5 and the “MF of TM8 (modulation factor)” value (K. pneumoniae JIE2713; TM8 with Aztreonam) was 2. The “MIC of TM8 + DrugB” value (K. pneumoniae JIE2713; TM8 with Aztreonam) was 7.8125 µg/mL, the ƩFIC (K. pneumoniae JIE2713; TM8 with Aztreonam) was 1 and the FICTM8 (K. pneumoniae JIE2713; TM8 with Cefotaxime) was 0.5. For the same compound, the “MF of TM8 (modulation factor)” value (K. pneumoniae JIE2713; TM8 with Cefotaxime) was 2, the ƩFIC (K. pneumoniae JIE2713; TM8 with Cefotaxime) was 1 and the FICTM8 (K. pneumoniae JIE2713; TM8 with Ciprofloxacin) was 0.25. The “MF of TM8 (modulation factor)” value (K. pneumoniae JIE2713; TM8 with Ciprofloxacin) was 4, the ƩFIC (K. pneumoniae JIE2713; TM8 with Ciprofloxacin) was 0.273 and the FICTM8 (K. pneumoniae JIE2713; TM8 with Gentamicin) was 0.5. For the same compound, the “MF of TM8 (modulation factor)” value (K. pneumoniae JIE2713; TM8 with Gentamicin) was 2, the ƩFIC (K. pneumoniae JIE2713; TM8 with Gentamicin) was 1 and the Dead cells (C. auris CBS10913; TM8 at its MIC or 1% Triton X-100, 90 min, PBS control 0.2%) was 3.9%. The “SYTO 9 fluorescent signal of C. auris” value (C. auris CBS10913; TM8 at its MIC, 90 min, 37°C, PBS, PBS control 51.7%) was 25.5%, the “Cells doubly stained with SYTO 9 and PI” value (C. auris CBS10913; TM8 at its MIC, 90 min, PBS control 0.7%) was 21.5% and the “Time to 3-log reduction” value (C. auris CBS 10913 [1]; 1× MIC) was ≤ 6 h. The “Time to complete killing of the yeast cells” value (C. auris CBS 10913 [1]; 1× MIC) was ≤ 12 h, the “Time to fungicidal activity” value (C. auris CBS 10913 [1]; 4× MIC) was ≤ 2 h and the “Biofilm tolerance factor-inhibition (MBIC/MIC)” value [2] was 2. For the same compound, the “Biofilm tolerance factor-eradication (MBEC/MIC)” value ([3]; C. auris CBS12373, MTT) was 4, the “Mature biofilm MBEC” value ([3]; CBS12373 biofilm, 48 h) was 62.5 µg/mL and the “Mature biofilm inhibition, blank corrected 570 nm, av. of readings” value (shortened to “Mature biofilm inhibition”) ([3]; agent at 0.976562 (growth control 1.115)) was 1.684. The “Mature biofilm inhibition” value ([3]; agent at 1.95312 (growth control 1.115)) was 1.307, the “Mature biofilm inhibition” value ([3]; agent at 3.90625 (growth control 1.115)) was 0.871 and the “Mature biofilm inhibition” value ([3]; agent at 7.8125 (growth control 1.115)) was 0.456. For the same compound, the “Mature biofilm inhibition” value ([3]; agent at 15.625 (growth control 1.115)) was 0.49, the “Mature biofilm inhibition” value ([3]; agent at 31.25 (growth control 1.115)) was 0.129 and the “Mature biofilm inhibition” value ([3]; agent at 62.5 (growth control 1.115)) was 0. The “Mature biofilm inhibition” value ([3]; agent at 125 (growth control 1.115)) was -0.0001, the “Mature biofilm inhibition” value ([3]; agent at 250 (growth control 1.115)) was 0.02 and the “Mature biofilm inhibition” value ([3]; agent at 500 (growth control 1.115)) was 0.02. The “MBIC for initial biofilm” value [4] was 31.25 µg/mL, the “MIC in the presence of sorbitol” value (C. auris CBS 10913 [5]) was 7.8 µg/mL and the MIC without sorbitol (C. auris CBS 10913 [5]) was 7.8 µg/mL (≈ 6.99 µM). For the same compound, the “MIC against MDR ESKAPE pathogens” value (MDR ESKAPE pathogens) was < 13 µg/mL, the “Concentration at which self-assembly into an ellipsoidal form is found” value [6] was 1000 ng/mL and the “Concentration with significant inhibition of biofilm formation” value [7] was 1.56 µg/mL.
